Experiment [1] has as its system Immunoglobulin-G1 mediated bronchoconstriction reaction. Briefly: Action on immunoglobulin-G1 mediated bronchoconstriction reaction in guinea pigs. The experiment is classed as in vivo, Hartley guinea pigs. To be noted: Cavia porcellus; 20 mg/kg oral, 1 hour before antigen. The method, then:
Action on the Immunoglobulin-G1 Mediated Bronchoconstriction Reaction in Guinea Pigs
In accordance with the method of Orange and Moore (Orange, R. P. and Moore E. G. , J. Immunol., 116, 392-397, 1976), female and male Hartley guinea pigs weighing about 350 g were sensitized by intraperitoneal application of an emulsion (1 ml) composed of egg albumin (1 mg) and Freund's complete adjuvant (produced by Wako Pure-Chemical Industries, Ltd. of Japan). 3 Weeks after the sensitization, a serum antibody level in the sensitized guinea pigs was measured by means of the 3-hours passive cutaneous anaphylaxis (PCA) reaction in guinea pigs. […] The broncoconstriction reaction resulting from the antigen-antibody reaction was measured in accordance with the Konzett-Rossler method (Konzett, H. and Rossler, R., Naunyn-Schmiedeberg'ss Arch. exp. Path. pharmak., 195, 71-74, 1940). The guinea pigs were fixed on the dorsal position under anesthesia with a urethane (1.5 g/kg given intraperitonealy). An incision was made through the trachea, which was connected to an artificial respirator (manufactured by Harvard Co.) through an endotracheal tube, with a side tube of the endotracheal tube being attached to a brochoconstricting transducer (type 7020, manufactured by Ugobasile Co.). While an air volume per ventilation was adjusted to 5 to 7 ml and an air ventilation rate was controlled at 70 times/min., with a load pressure to the lung set at 10 cm H2 O, the overflown air volume was recorded on Rectigraphy-8S (manufactured by Sanei Sokki Inc. of Japan) through a transducer. After 1 mg/kg of gallamine triethiodide was given intravenously to the animals, 1 mg/kg of antigen, egg albumin dissolved in physiological saline, was applied intravenously to induce a brochoconstriction reaction. The bronchconstriction reaction was recorded for the period of time of 15 minutes. A drug was suspended in 5% gum arabic solution, and given orally 1 hour before the application of the antigen. Percent inhibition of the immunoglobuin G1 mediated bronchoconstriction reaction in guinea pigs are shown below in Table 3.

Experiment [2] deals with Fe^3+ -NTA-induced injury of rat kidney. Briefly: Inhibitory effect on Fe3+-NTA-induced injury of rat kidney. To be noted: 20 mg/kg oral once a day; for body weight gain: control 9.8 ± 5.4, normal 68.3 ± 2.3; for Urinary volume: control 20, normal 6.8; for Urinary protein: control 25.1, normal 5.1. The class given is in vivo, Wistar rats. How it is done: Ferric Nitrilotriacetate (Fe^3+ -NTA)-Induced Injury of Rat Kidney
Male Wistar rats of 4 weeks old weighing about 80 g were used. Injury of kidney was induced by the method of Awai et al. [Amer. J. Pathol., 95, 663-674 (1979)]. The mixture of ferric nitrate and NTA as a ratio of 1:4 was intraperitoneally given: iron of 5 mg/kg for 3 days followed 10 mg/kg for 9 days. Twelve days later, the animals were killed. Body weight gain, urinary volume, urinary protein and wet and dry weights of kidney were measured. Drugs were suspended in a 5% gum arabic solution and given orally once a day in a dose of 20 mg/kg.

Experiment [3] has as its system vascular permeability during early response of rat reversed passive Arthus pleurisy. Description: Effects on vascular permeability in rat reversed passive Arthus pleurisy. The class given is in vivo. How it is done: Effects on Increased Vascular Permeability and Slow Reacting Substance of Anaphylaxis (SRS-A) Generation in Rat Reversed Passive Arthus Pleurisy
The rat reversed passive Arthus pleurisy was induced by the method of Yamamoto et al. Agents Actions, 5, 374-377 (1975)]. Rats were given 1 ml of saline containing 5 mg of egg albumin intravenously followed 0.2 ml of rabbit anti-agg albumin antiserum injected into the pleural cavity. Just after that, 0.5 ml of saline contained 1% Evans blue was administered intravenously to the rats. 30 Minutes later, the animals were killed by bleeding, and the pleural cavity was rinsed with 2 ml of saline. The concentrations of the dye in the pleural exudate and the peripheral blood were measured to calculate the volume of serum infiltrated into the pleural cavity. The vascular permeability (dye concentration in pleural cavity/dye concentration in peripheral blood) was expressed as μl serum/30 min. On the other hand, the amount of SRS-A generated in the pleural cavity was determined by the following procedures. 30 Minutes after induction of the pleurisy, the aminals were killed by bleeding and the pleural cavity was rinsed with 2 ml of saline. 9 Milliliter of cold absolute ethanol were immediately added to the rinsed solution. The mixture was allowed to stand at 4° C. for 30 min. After the mixture was centrifuged at 3000 r.p.m. for 10 min, the supernatant was concentrated by evaporation. The resulting residue was dissolved in 0.5 ml of saline. The amount of SRS-A generated was bioassayed using guinea pig ileum.

Experiment [4] has as its system O2^- production in guinea pigs peritoneal macrophages. Description: Inhibitory effect on O2- production in guinea pig peritoneal macrophages (chemiluminescence). To be noted: Cavia porcellus, Peritoneal macrophage, 3 experiments; for inhibition at 100 µM: 10^-4 M; for inhibition at 10 µM: 10^-5 M; for inhibition at 1 µM: 10^-6 M. The experiment is classed as cell-based, guinea pig (Hartley). How it is done: Superoxide (O2^-) Production in Guinea Pig Peritoneal Macrophages
Male Hartley guinea pigs weighing 400-450 g were given intraperitoneally 5 ml of liquid paraffin. Four days later, 15 ml of Hank's buffer were administered into the peritoneal cavity for harvest of peritoneal cells. Macrophages in the peritoneal cells were purified by the method of Wood, P. R. [J. Immunol. Methods, 28, 117-124 (1979)].
The purity of macrophages was more than 95%. The reaction mixture contained 75 μl of macrophages (1×10^7 cells/ml), 5 μl of luminol, 10 μl of phorbol myristate acetate and 10 μl of drugs in a total volume of 100 μl. O2^- Product was assayed by chemiluminescence. Drugs were dissolved in a 10% dimethyl sulfoxide.

Experiment [5] deals with SRS-A generation in the rat peritoneal cavity. Briefly: Effects on immunologically stimulated generation of SRS-A in the rat peritoneal cavity. The experiment is classed as in vivo. To be noted: 1 mg/kg intraperitoneal, 1 min before antigen. How it is done:
Slow Reacting Substance of Anaphylaxis (SRS-A) Generation in Rat Peritoneal Cavity
Generation of SRS-A in rat peritoneal cavity was determined by the method of Orange et al. [J. Immunol., 105, 1087-1095 (1970)] Rat-anti-egg albumin antiserum wad diluted twice with saline, and 2 ml of it was intraperitoneally given to the rat. Two hours later, egg albumin 2 mg in 5 ml of Tyrode solution containing heparin ([…]) and gelatin (0.1%) was intraperitoneally administered. Fifteen minutes after the antigen challenge, the animals were killed by bleeding under ether anesthesia and the solution given into the peritoneal cavity was harvested. The solution was centrifuged at 900 g for 5 min. Two ml of the supernatent was mixed with 7 ml of cold absolute ethanol and the mixture stood for 30 min at 4° C. After centrifugation at 1,500 g for 10 min, the supernatant was evaporated. The residue was dissolved in 1 ml of saline. Amount of SRS-A was bioassayed using guinea pig ileum. Drug dissolved in a 1% dimethylsulfoxide was intraperitoneally given 1 min before the antigen challenge.

Each structure is given as a SMILES string.

`CC1=C(C)C(=O)C(C(CCCCCC(=O)O)c2ccccc2)=C(C)C1=O` (centres unmarked) [Compound No. 50, 7-(3,5,6-trimethyl-1,4-benzoquinon-2-yl)-7-phenylheptanoic acid]: 20 mg/kg produced 76% inhibition in vivo in experiment [1]. Besides, in experiment [2], the “Urinary protein (% inhibition)” value is reported as 88%, the “Urinary volume (% Inhibition)” value was found to be 88%, the “Water content in kidney (% Inhibition)” value was 81% and the body weight gain is reported as 39.3 ± 7.4 g. In experiment [2], this compound had a Urinary volume of 8.4 mL/day and a Urinary protein of 7.5 mg/day. Also, in experiment [3] (0.1 mg/rat), the “% Inhibition of vascular permeability” value is given as 21%. Besides, the “% Inhibition of vascular permeability” value in experiment [3] (1 mg/rat) worked out at 47%. Also, in experiment [4], at 100 µM the inhibition was 88 ± 2%, at 10 µM the inhibition was 38 ± 3% and at 1 µM the inhibition was 16 ± 6%. For the same compound, the “SRS-A generation, Inhibition (%)” value in experiment [5] was 72%. Moreover, the SRS-A generation in experiment [5] (control 26.5 ± 3.9) worked out at 7.5 ± 2.0 LTD4 ng/rat.
As to `CC1=C(C)C(=O)C(C(CCCCCC(=O)O)c2ccc(C)cc2)=C(C)C1=O` (centres unmarked) [Compound No. 93], the inhibition in vivo (usually the percentage by which the read-out fell short of the control) at 20 mg/kg in experiment [1] is 83%. Further, in experiment [2], the “Urinary protein (% inhibition)” value came to 10%, the “Urinary volume (% Inhibition)” value came out at 47%, the “Water content in kidney (% Inhibition)” value is 7% and the body weight gain turned out to be 26.2 ± 4.9 g. In experiment [2], the Urinary volume came to 13.6 mL/day and the Urinary protein came to 23.1 mg/day. The “% Inhibition of vascular permeability” value in experiment [3] (0.1 mg/rat) is 14%. In experiment [3] (1 mg/rat), the “% Inhibition of vascular permeability” value is recorded as 43%. In experiment [4], the inhibition (usually how much of the control response was suppressed) at 100 µM amounted to 91 ± 3%, the inhibition at 10 µM was 33 ± 12% and the inhibition at 1 µM stood at 9 ± 6%.

The values are drawn from patent publication US5180742A, “Quinone derivatives, their production and use” (Takeda Chemical Industries, Ltd., priority 1984, dated 1993).
